Results on six molecules are retold here after ChEMBL document CHEMBL3102783, “Structural studies, homology modeling and molecular docking of novel non-competitive antagonists of GluK1/GluK2 receptors” (Bioorg Med Chem, 2014).

Test [1] has as its target T1, Glutamate receptor ionotropic, kainate 2 (Homo sapiens, UniProt Q13002). In words: Displacement of [3H]-kainate from GluK2 receptor (unknown origin) at 100 uM. A general note: Displacement assays read how much labelled ligand stays bound in the presence of the test substance.
Test [2] concerns the target T2, Glutamate receptor ionotropic, kainate 1 (Homo sapiens, UniProt P39086). The test is described as follows: Displacement of [3H]-kainate from GluK1 receptor (unknown origin) at 100 uM.
For test [3], the target named is T1, Glutamate receptor ionotropic, kainate 2. The test is described as follows: Displacement of [3H]-kainate from GluK2 receptor (unknown origin).
Test [4] deals with T2, Glutamate receptor ionotropic, kainate 1. The test is described as follows: Displacement of [3H]-kainate from GluK1 receptor (unknown origin).

T2 sequence (P39086 whole entry): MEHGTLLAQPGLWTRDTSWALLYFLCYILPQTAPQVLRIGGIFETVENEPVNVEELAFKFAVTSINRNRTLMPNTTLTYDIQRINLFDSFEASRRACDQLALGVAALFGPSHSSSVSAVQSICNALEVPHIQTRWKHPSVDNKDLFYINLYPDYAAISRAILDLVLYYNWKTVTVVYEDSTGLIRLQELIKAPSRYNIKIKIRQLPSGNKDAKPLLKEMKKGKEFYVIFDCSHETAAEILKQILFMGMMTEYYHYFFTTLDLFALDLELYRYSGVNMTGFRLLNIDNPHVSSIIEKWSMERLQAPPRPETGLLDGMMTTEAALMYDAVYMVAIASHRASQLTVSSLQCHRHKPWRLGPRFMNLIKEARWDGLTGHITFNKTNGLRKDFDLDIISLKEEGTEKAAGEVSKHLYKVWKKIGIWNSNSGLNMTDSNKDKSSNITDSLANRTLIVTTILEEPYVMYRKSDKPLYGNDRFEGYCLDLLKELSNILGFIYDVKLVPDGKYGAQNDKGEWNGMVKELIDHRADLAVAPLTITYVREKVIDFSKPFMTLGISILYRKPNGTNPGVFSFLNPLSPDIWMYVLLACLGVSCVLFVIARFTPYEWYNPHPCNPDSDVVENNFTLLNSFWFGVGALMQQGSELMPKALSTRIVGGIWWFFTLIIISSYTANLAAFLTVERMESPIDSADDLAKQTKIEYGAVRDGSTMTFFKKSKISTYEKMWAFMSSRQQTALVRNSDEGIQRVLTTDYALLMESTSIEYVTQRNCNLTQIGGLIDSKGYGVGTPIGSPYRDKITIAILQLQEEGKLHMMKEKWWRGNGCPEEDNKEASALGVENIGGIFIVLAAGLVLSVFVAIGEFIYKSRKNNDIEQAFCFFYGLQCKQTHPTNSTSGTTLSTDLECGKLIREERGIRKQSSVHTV
T1 sequence (Q13002 whole entry): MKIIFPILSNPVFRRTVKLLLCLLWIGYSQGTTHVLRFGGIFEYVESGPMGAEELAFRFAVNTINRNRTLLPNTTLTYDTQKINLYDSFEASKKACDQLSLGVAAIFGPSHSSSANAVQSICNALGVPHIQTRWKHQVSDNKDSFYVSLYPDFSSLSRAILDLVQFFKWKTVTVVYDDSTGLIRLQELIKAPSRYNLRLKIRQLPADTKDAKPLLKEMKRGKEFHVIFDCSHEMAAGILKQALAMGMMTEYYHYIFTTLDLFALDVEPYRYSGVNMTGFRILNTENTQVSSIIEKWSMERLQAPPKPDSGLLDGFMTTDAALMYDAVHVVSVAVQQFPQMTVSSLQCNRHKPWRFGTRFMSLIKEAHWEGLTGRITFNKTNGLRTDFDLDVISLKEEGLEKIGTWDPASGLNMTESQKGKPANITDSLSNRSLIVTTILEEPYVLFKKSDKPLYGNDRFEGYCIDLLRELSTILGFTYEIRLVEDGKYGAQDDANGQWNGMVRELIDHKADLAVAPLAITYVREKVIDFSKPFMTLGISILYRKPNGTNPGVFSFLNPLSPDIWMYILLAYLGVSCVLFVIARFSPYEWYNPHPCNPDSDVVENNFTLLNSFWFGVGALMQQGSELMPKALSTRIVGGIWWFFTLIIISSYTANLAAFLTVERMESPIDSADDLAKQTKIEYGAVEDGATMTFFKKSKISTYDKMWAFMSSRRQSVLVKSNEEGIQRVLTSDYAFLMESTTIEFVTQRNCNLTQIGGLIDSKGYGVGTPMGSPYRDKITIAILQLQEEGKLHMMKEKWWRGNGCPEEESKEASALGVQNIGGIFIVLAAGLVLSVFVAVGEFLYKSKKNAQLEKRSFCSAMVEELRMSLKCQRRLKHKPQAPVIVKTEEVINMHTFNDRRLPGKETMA

In general, inhibition refers to the relative decrease from the control value, in per cent. A lower inhibition goes with a weak effect. Take `CCn1c2c(c3cc(OC)ccc31)CCc1ccccc1-2`: the results for the inhibition in test [1] and in test [2] were 1% and 0%, respectively.
As a reminder, the IC50 is the concentration needed to halve the response being measured. Low values mean greater potency in that assay, high ones weaker potency in that assay. In turn, `CCn1c(-c2ccccc2)c(C)c2cc(OC)ccc21` yielded an IC50 in test [3] of 6 µM. The molecule also yielded an inhibition in test [2] of 32%.
Consider `CCn1c(-c2ccccc2)cc2cc(OC)ccc21`, for which the IC50 in test [3] was determined as 6.7 µM; in test [4], 12 µM.
`CCn1c(-c2ccc(OC)cc2)c(C)c2ccccc21` registered an IC50 in test [3] of 10 µM. The same molecule gave an inhibition in test [2] of 32%.
`COc1ccc(-c2c(C)c3cc(OC)ccc3n2Cc2ccc(Cl)cc2)cc1`: the inhibition was 20% in test [1] and 0% in test [2].
Take `CCn1c(-c2ccc(OC)cc2)c(C)c2cc(OC)ccc21`: the half-inhibitory concentration (IC50) was 0.7 µM in test [3] and 4 µM in test [4].
